The values that follow come from patent US12370181B2, “Regimens of estrogen receptor antagonists” (Olema Pharmaceuticals, Inc., priority 2019, dated 2025).

Data set [1] relates to ligand-independent ER mutants. As to the kind of experiment: AP activity in Ishikawa cells transiently transfected with ER variants. It is filed as cell-based, human. The settings on record: in the absence of E2; 3 days; FIGS. 5A-5F, 8A-8D. The protocol: (§1) The present Example describes studies in which certain estrogen receptor constructs were transfected into Ishikawa cells, which are a human endometrial cancer cell line, endogenous alkaline phosphatase is assayed. 15,000 Ishikawa cells per well were plated into a 96-well plate in […] containing 5% stripped FBS. At the time of plating, cells in each well were transiently transfected with 75-100 ng of an estrogen receptor construct (or empty vector, pSG5) using Lipofectamine LTX (ThermoFisher Scientific). Approximately 4 hours later, cells were treated with indicated amount of anti-estrogen (in the absence of E2), or 500 pM E2 (FIG. 9), and media was diluted to 2.5% stripped FBS. Cells were incubated for 3 days, media removed, and plates frozen at −80° C. […] After 40-80 minutes at 40° C., absorbance was read at 405 nm.

In another data set the target is T1, endogenous wild type ER (Homo sapiens, UniProt P03372).
T1 construct: AP activity of endogenous wild type ER in un-transfected Ishikawa cells; endogenous in cells; host or cells: Ishikawa cells (un-transfected)
T1 sequence (P03372 1-595): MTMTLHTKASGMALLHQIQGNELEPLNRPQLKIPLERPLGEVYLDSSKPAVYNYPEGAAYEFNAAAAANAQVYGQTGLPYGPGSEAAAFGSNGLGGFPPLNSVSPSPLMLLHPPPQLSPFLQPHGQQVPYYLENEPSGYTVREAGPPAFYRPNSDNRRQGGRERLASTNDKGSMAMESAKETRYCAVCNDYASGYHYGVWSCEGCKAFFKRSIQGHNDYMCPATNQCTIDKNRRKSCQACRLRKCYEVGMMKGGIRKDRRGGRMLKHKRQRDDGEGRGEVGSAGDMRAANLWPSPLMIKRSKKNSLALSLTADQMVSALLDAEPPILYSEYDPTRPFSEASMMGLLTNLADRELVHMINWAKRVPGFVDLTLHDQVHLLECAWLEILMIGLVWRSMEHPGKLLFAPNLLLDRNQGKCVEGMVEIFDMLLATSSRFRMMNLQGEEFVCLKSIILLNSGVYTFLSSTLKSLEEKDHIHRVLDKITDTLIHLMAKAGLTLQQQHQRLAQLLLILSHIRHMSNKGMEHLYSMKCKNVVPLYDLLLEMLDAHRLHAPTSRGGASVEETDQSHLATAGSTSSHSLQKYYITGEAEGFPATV
As to the kind of experiment: Alkaline phosphatase (AP) activity of endogenous wild type ER in un-transfected Ishikawa cells, agonist and antagonist mode. It is filed as cell-based. The protocol:
as §1
AP activity of endogenous wild type ER in un-transfected Ishikawa cells was assayed as described above.

The conditions of data set [2]: in vivo, po, 300 mg/kg.

As to `C[C@@H]1Cc2c([nH]c3ccccc23)[C@@H](c2c(F)cc(/C=C/C(=O)O)cc2F)N1CC(C)(C)F` [AZD-9496], in data set [1], the “Inhibition of activity of ligand-independent ER mutants (AP activity)” value (“Inhibition” for short) is “none of Endoxifen, RAD-1901, ARN-810 (GDC-0810) or AZD-9496 can inhibit activity of the ligand-independent ER variants”. Besides, the “Agonist activity (ER activity, AP)” value on endogenous wild type ER (agonist mode: compound alone, no added estrogen, FIG. 1A) is listed as “increases ER activity in the absence of added estrogen”. In addition, the “Antagonist activity (ER activity, AP)” value on endogenous wild type ER (antagonist mode: in the presence of 500 pM 17β-estradiol (E2), FIG. 1B) is listed as “reducing ER activity when estrogen is there”.

For `C[C@]12CC[C@@H]3c4ccc(O)cc4C[C@@H](CCCCCCCCC[S+]([O-])CCCC(F)(F)C(F)(F)F)[C@H]3[C@@H]1CC[C@@H]2O` (stereo partly drawn) [Fulvestrant], in data set [2], the “Blood brain barrier penetration” value is reported as “unable to penetrate the blood-brain barrier in analogous quantities”. As to `CCNCCc1ccc(CN(CC)c2cc(OC)ccc2[C@@H]2CCc3cc(O)ccc3C2)cc1` [RAD-1901, Elacestrant], the “Inhibition” value in data set [1] was “none of Endoxifen, RAD-1901, ARN-810 (GDC-0810) or AZD-9496 can inhibit activity of the ligand-independent ER variants”. Take `CC/C(=C(/c1ccc(/C=C/C(=O)O)cc1)c1ccc2[nH]ncc2c1)c1ccc(F)cc1Cl` [ARN-810, Brilanestrant]: in data set [1], the “Inhibition” value is “none of Endoxifen, RAD-1901, ARN-810 (GDC-0810) or AZD-9496 can inhibit activity of the ligand-independent ER variants”.
